Results taken from US12128035B2, “Activating pyruvate kinase R” (Novo Nordisk Health Care AG, priority 2021, dated 2024).

Assays:
[1] = system: p50 (PO2 at 50% hemoglobin saturation); assay: Phase 1: p50 (oxygen affinity) in SCD patients; format: in vivo, human
Procedure: In SCD patients, the mean absolute change in p50, relative to baseline, measured 24 hours after a single 700 mg dose of Compound 1, was −4 mmHg.
With respect to the bar graphs representing the “Untreated” and “Treated” subjects in the SCD MAD cohort, the bar on the left side represents the P50 measured Pre-Dose, and the bar on the right side represents the P50 measured after 14 days of Compound 1, 300 mg once daily. SCD RBCs have higher P50 at baseline compared to HV RBCs. In the MAD cohort in SCD patients (300 mg QD for 14 days), the mean absolute change in p50, relative to baseline, measured 24 hours after the final dose of Compound 1, was −4 mmHg.
The oxygen affinity of RBCs was measured in patient blood using a Hemox Analyzer (TCS Scientific Corp.), an automatic system for the recording of blood oxygen equilibrium curves and related phenomena. The Hemox Analyzer was used according to standard methods to determine the hemoglobin-oxygen dissociation curves for whole blood samples, numerically characterized by the p50, the partial pressure of oxygen at which hemoglobin is 50% saturated. […] In the case of hemoglobin, the wavelength of maximum absorbance is the measuring wavelength (560 nm), while the reference wavelength is at the isosbestic point at (570 nm). The absorbance at the isosbestic point remains unchanged during the deoxygenation process of the hemoglobin, however the measuring wavelength (560 nm) undergoes a drastic change in absorbance. This change is detected by the electronic circuitry and is plotted as the log/ratio change between the two wavelengths. The log/ratio measurement at 560 nm and 570 nm is utilized to measure the optical absorbance change during the deoxygenation of the hemoglobin. Simultaneously with the measurement of the hemoglobin absorbance, the oxygen concentration is directly measured in the sample using a Clark electrode. […]

[2] = Phase 1 SAD/MAD: plasma pharmacokinetics in healthy volunteers; format: in vivo, human; details: 14 days of dosing in healthy subjects
Source text: This is a first-in-human (FIH), Phase 1 study of Compound 1 that will characterize the safety, PK, and PD of Compound 1 after a single dose and after repeated dosing first in healthy adult volunteers and then in adolescents or adults with sickle cell disease. Initially, a dose range of Compound 1 in single ascending dose (SAD) escalation cohorts will be explored in healthy subjects. Enrollment of healthy subjects into 2-week multiple ascending dose (MAD) escalation cohorts will be initiated once the safety and PK from at least two SAD cohorts is available to inform the doses for the 2-week MAD portion of the study. The MAD cohorts will then run in parallel to the single dose cohorts. A single dose cohort is planned to understand food effects (FE) on the PK of Compound 1. […]
In this study, SAD/MAD cohorts are randomized (3 to 1) to receive Compound 1 or placebo (P). Compound 1 was evaluated first in 4 healthy SAD cohorts and 4 healthy MAD (14-day dosing period) cohorts. Based on the safety, and PK/PD profile from HS, Compound 1 is then evaluated in 1 SCD SAD cohort and 2 SCD MAD cohorts. Specifically, based on the safety and pharmacokinetic/pharmacodynamics (PK/PD) profile in healthy volunteer studies, Compound 1 is evaluated in patients (pts) with SCD, first in a single dose (SD or SAD) cohort and then in multiple-dose (MD or MAD) cohorts (14-day and 12-week). […]

In the case of `O=C([C@H](CO)c1ccccc1)N1CC2=C(C1)CN(S(=O)(=O)c1cnc3c(c1)OCCO3)C2` (single isomer, unassigned) [Compound 1], the “mean absolute change in p50, relative to baseline” value ([1]; SCD 300 mg QD for 14 days, 24 hours after the final dose) is reported as −4 mmHg, the “p50 (Oxygen affinity curve)” value ([1]; SCD single 700 mg, Post-dose (24 hours), median (range), pre-dose 29.4 (26.1, 32.3)) is reported as 25.8 (23.3, 26.8) and the “mean absolute change in p50, relative to baseline” value ([1]; SCD, 24 hours after single 700 mg dose) is reported as −4 mmHg. The “clearance on day 1 and day 14” value [2] was “unchanged”.
